This note sets out measurements from publication PMC9416257, “Design, Synthesis and Preliminary Evaluation of the Cytotoxicity and Antibacterial Activity of Novel Triphenylphosphonium Derivatives of Betulin” (Molecules, 2022).

Experiment [1] deals with HCT 116 (colorectal carcinoma cell line). The experiment is described as follows: Cytotoxicity, CCK-8 cell viability assay. Format: cell-based. The conditions noted are these: Homo sapiens, read-out: Activity IC50, HCT 116. On the procedure: (§1) The obtained new molecular hybrids of BN were screened in order to initially investigate their cytotoxicity as well as examine the relationships between the structure and biological effect. The common element of all of the tested compounds was the presence of a lipophilic moiety (CH2)nTPP^⊕ (n = 3, 4, 5). The research was conducted on two groups of compounds: 28-TPP^⊕ BN and 3,28-bisTPP^⊕ BN. Their cytotoxicity was investigated on two cancer cell lines: HCT 116 (colorectal carcinoma cell line) and MCF-7 (human breast adenocarcinoma cell line). The proliferation of tumor cells treated with the tested compounds (7 and 9) at 12.5–3.125 µM concentrations were determined after 24 h of incubation. Additionally, all compounds were tested against the NHDF cell line (Normal Human Dermal Fibroblast cells) to assess their safety. Half-maximal inhibitory concentrations (IC50) of triphenylphosphonium analogs of BN were determined using a CCK-8 assay and are summarized in Table 2.
(§2) The human colorectal carcinoma cell line (HCT 116) and the human breast adenocarcinoma cell line (MCF-7) cells were purchased from the American Type Culture Collection (ATCC, Manassas, VA, USA). The Normal Human Dermal Fibroblast (NHDF) cells were purchased from Lonza (Dermal Fibroblasts, Lonza, Poland). All cells were cultured under standard conditions at 37 °C in a humidified atmosphere at 5% CO2 in DMEM/F12 medium (PAA) supplemented with 10% of heat-inactivated fetal bovine serum (FBS, EURx, Gdansk, Poland) and antibiotics (penicillin/streptomycin).
(§3) Cells were seeded at 7500 (HCT 116) or 10,000 (MCF-7, NHDF) cells/well in 96-well plates. After 24 h, the culture medium was removed and 100 µL of fresh medium containing the test compounds at 0–12.5 µM concentrations was added to the culture wells. The test compounds were dissolved in DMSO to obtain a stock solution with a concentration of 5 mM (betulin) or 10 mM (other test compounds). The stock solution was diluted with the fresh culture medium to the desired concentration. Controls were cells grown in medium without the addition of test compounds. After 24 h of incubation with the test compounds, 10 µL of CCK-8 reagent (Bimake, Houston, TX, USA) was added to each well. After 2 h, the absorbance of the samples was measured at a wavelength of 450 nm using a microplate reader (Epoch, BioTek Instruments, Winooski, VT, USA). The determinations were conducted in at least three biological replications (each biological replication contained 3 technical replications). The cell viability rate was calculated using CalcuSyn software (version 2.0, Biosoft, Cambridge, UK).
For orientation: Formazan colour is commonly taken as a measure of viable cells.

In experiment [2] the test system is MCF-7 (human breast adenocarcinoma cell line). Description: Cytotoxicity, CCK-8 cell viability assay. The conditions noted are these: read-out: Activity IC50, MCF-7. Format: cell-based. On the procedure:
as §1, §2
as §3, with “After 24 h, the culture medium was removed and 100 µL of fresh medium containing the test compounds at 0–12.5 µM concentrations was added to the culture wells.” left out

The subject of experiment [3] is NHDF (Normal Human Dermal Fibroblast cells). Description: Cytotoxicity, CCK-8 cell viability assay (safety on normal cells). Format: cell-based. The following applies: read-out: Activity IC50, NHDF. On the procedure: as §1, §2, §3
For the next experiment, the system named is S. aureus ATCC 25923. The experiment is described as follows: Antibacterial assay, optical density of culture in TSB. The class given is cell-based, Staphylococcus aureus. The conditions noted are these: 37 °C, 18 h. On the procedure: (§4) Investigations were carried out using different concentrations of solutions from 25 to 250 µM. A 25 µM concentration of the tested derivatives was not enough to inhibit the growth of […]. When the concentration of analogs 7d–7f and 9a–9c increased to 200 µM, the growth of S. aureus ATCC 25923 and S. epidermidis ATCC 12228 was inhibited. Furthermore, the optical density of all compounds remained unchanged after 18 h of bacteria culture. In the case of analogs 7a–7c, the optical density values were between 0.9 and 2.2 when they were cultured with S. aureus ATCC 25923. The bacterial growth was slower compared to the control sample (TSB-culture medium). […] In the case of analog 7c, the optical density increased up to […] after 18 h of the sample culture with both kinds of Gram-positive bacteria. In contrast, the reference sample’s (TSB) optical density increased to 7.5 for S. aureus ATCC 25923, and 4.9 for S. epidermidis ATCC 12228 after 18 h of bacteria culture. […] All of the analog values of the measured optical density were similar to that of the reference sample (5.0–5.1, Table 3).
(§5) Antibacterial analysis was performed using the S. aureus ATCC 25923, S. epidermidis ATCC 12228, and Escherichia coli ATCC 25922 bacteria strains. The test compounds were dissolved in DMSO to obtain a stock solution with a concentration of 5 mM (betulin) or 10 mM (other test compounds). The stock solution was diluted with water to the desired concentration (25–250 µM). Then, 1 mL of the investigated solutions was mixed with 1 mL of culture medium (TSB, Biomaxima, Lublin, Poland) in a sterile glass tube. The initial concentration of bacteria was around 5 × 10^6 CFU/mL. The concentration of bacteria was measured using an optical densitometer before and after 18 h of bacteria culture in glass tubes at 37 °C (incubator POL-EKO, Wodzislaw Slaski, Poland). The investigations were repeated for three independent samples. The control sample was the culture medium without any supplementation.

Experiment [4] deals with S. epidermidis ATCC 12228. Described as above. The class given is cell-based, Staphylococcus epidermidis. The conditions noted are these: 37 °C, 18 h. On the procedure:
as §4, §5

The subject of experiment [5] is Escherichia coli ATCC 25922. Described as above. The conditions noted are these: 37 °C, 18 h. The class given is cell-based. Here is the method:
as §4, §5

Where two headings read alike, the source gives them in different places. Bounds are passed on as bounds.
Wherever Difference between optical density before and after culture, Escherichia coli ATCC 25922 is given: key: 0: no difference between samples after 18 h of bacteria culture (bacteria grow was inhibited); neg: negative results (analog BN did not inhibit bacteria growing).

A word on the IC50: it is the point on the concentration scale where inhibition reaches its midpoint. For the compound `C=C(C)[C@@H]1CC[C@]2(COC(=O)CCC(=O)OCCC[P+](c3ccccc3)(c3ccccc3)c3ccccc3)CC[C@]3(C)C(CCC4[C@@]5(C)CC[C@H](OC(=O)CCC(=O)OCCC[P+](c6ccccc6)(c6ccccc6)c6ccccc6)C(C)(C)C5CC[C@]43C)C12` (stereo partly drawn) [9a, 3,28-O,O′-Bis(3’-(3"-triphenylphosphoniopropyloxycarbonyl)propanoyl)betulin bromide], the IC50 amounted to 6.32 ± 0.27 µM in experiment [1] (HCT-116, 24 h); 31.3 ± 3.02 µM in experiment [2] (MCF7, 24 h); 5.91 ± 0.33 µM in experiment [3] (24 h). In addition, the “Difference between optical density before and after culture, S. aureus ATCC 25923” value in the experiment on S. aureus ATCC 25923 (200 μM) and in the experiment with S. aureus ATCC 25923 (250 μM) was 0 throughout. In addition, the “Difference between optical density before and after culture, S. epidermidis ATCC 12228” value in experiment [4] (200 μM) and in experiment [4] (250 μM) was 0 each time. Also, the “Difference between optical density before and after culture, Escherichia coli ATCC 25922” value in experiment [5] (200 μM) and in experiment [5] (250 μM) was “neg” each time.

Turning to `C=C(C)[C@@H]1CC[C@]2(COC(=O)CCC(=O)OCCCC[P+](c3ccccc3)(c3ccccc3)c3ccccc3)CC[C@]3(C)C(CCC4[C@@]5(C)CC[C@H](OC(=O)CCC(=O)OCCCC[P+](c6ccccc6)(c6ccccc6)c6ccccc6)C(C)(C)C5CC[C@]43C)C12` (stereo partly drawn) [9b, 3,28-O,O’-Bis(3’-(4"-triphenylphosphoniobutyloxycarbonyl)propanoyl)betulin bromide], the IC50 is 7.97 ± 0.51 µM in experiment [1] (HCT-116, 24 h); 23.6 ± 0.33 µM in experiment [2] (MCF7, 24 h); 8.02 ± 0.35 µM in experiment [3] (24 h). Further, the “Difference between optical density before and after culture, S. aureus ATCC 25923” value with S. aureus ATCC 25923 (200 μM) and in the experiment on S. aureus ATCC 25923 (250 μM) was 0 each time. For the same compound, the “Difference between optical density before and after culture, S. epidermidis ATCC 12228” value in experiment [4] (200 μM) and in experiment [4] (250 μM) was 0 in each case. Also, the “Difference between optical density before and after culture, Escherichia coli ATCC 25922” value in experiment [5] (200 μM) and in experiment [5] (250 μM) was “neg” each time.

Turning to `C=C(C)[C@@H]1CC[C@]2(COC(=O)CCC(=O)OCCCCC[P+](c3ccccc3)(c3ccccc3)c3ccccc3)CC[C@]3(C)C(CCC4[C@@]5(C)CC[C@H](OC(=O)CCC(=O)OCCCCC[P+](c6ccccc6)(c6ccccc6)c6ccccc6)C(C)(C)C5CC[C@]43C)C12` (stereo partly drawn) [9c, 3,28-O,O′-Bis(3’-(5"-triphenylphosphoniopentyloxycarbonyl)propanoyl)betulin bromide], the IC50 came to 19 ± 0.51 µM in experiment [1] (HCT-116, 24 h); 53.3 ± 5.41 µM in experiment [2] (MCF7, 24 h); 10.6 ± 0.34 µM in experiment [3] (24 h). Further, the “Difference between optical density before and after culture, S. aureus ATCC 25923” value in the experiment on S. aureus ATCC 25923 (200 μM) and in the experiment on S. aureus ATCC 25923 (250 μM) was 0 each time. The “Difference between optical density before and after culture, S. epidermidis ATCC 12228” value in experiment [4] (200 μM) and in experiment [4] (250 μM) was 0 in each case. Also, the “Difference between optical density before and after culture, Escherichia coli ATCC 25922” value in experiment [5] (200 μM) and in experiment [5] (250 μM) was “neg” in each case.

Consider `C=C(C)[C@@H]1CC[C@]2(CO)CC[C@]3(C)[C@H](CC[C@@H]4[C@@]5(C)CC[C@H](O)C(C)(C)[C@@H]5CC[C@]43C)[C@@H]12` [BN, 3-lup-20(29)-ene-3,28-diol, reference compound], for which the IC50 in experiment [1] (HCT-116, CCK-8 assay, incubation time 24 h, mean ± SD (n = 3)) was over 12.5 µM; in experiment [2] (MCF7, CCK-8 assay, incubation time 24 h, mean ± SD (n = 3)) it was over 12.5 µM; in experiment [3] (CCK-8 assay, incubation time 24 h, mean ± SD (n = 3)), over 12.5 µM. In addition, the entries for the “Difference between optical density before and after culture, S. aureus ATCC 25923” value in the experiment on S. aureus ATCC 25923 (200 μM) and in the experiment on S. aureus ATCC 25923 (250 μM) were 5.1 McFarland’s scale (CFU/mL) and 5.6 McFarland’s scale (CFU/mL), respectively. Besides, the “Difference between optical density before and after culture, S. epidermidis ATCC 12228” value in experiment [4] (200 μM) is given as “neg”; in experiment [4] (250 μM), 4.7 McFarland’s scale (CFU/mL). For the same compound, the “Difference between optical density before and after culture, Escherichia coli ATCC 25922” value in experiment [5] (200 μM) and in experiment [5] (250 μM) was “neg” each time.
